The test system of test [1] is CD44 low CD8+ T cells. The test can be described thus: PI and Annexin apoptosis assay, CD44 low cells. The format is cell-based, mice. The note with it: in the presence of SPD 0.2 μM. As for the experimental part:
(§1) FIG. 4 CD8^+ T cells were isolated from the spleen of mice without tumor inoculation, and further isolated into CD44^+ (CD44 high) and CD44^− (CD44 low) cell populations. a) CD44 low cells were simulated with CD3/CD28 antibody beads and SPD (0.2 μM). After 30 minutes, 1 hour, 2 hours and 72 hours, OCR was measured with a Seahorse analyzer. b) At the same time, total ATP production and glycolytic pathway-derived or mitochondrial activity-derived ATP production were calculated at 30-minute, 1-hour and 2-hour. c) CD44 low cells (2×10^5 cells) were stimulated with CD3/CD28 antibody beads and SPD (0.2 μM). After 24 hours, cell proliferation was examined by means of 3H uptake. d) Spare respiratory capacity (SRC) was calculated from the OCR measurement after 72 hours in a), and results with and without SPD were compared. e) CD44 low cells were stimulated with CD3/CD28 antibody beads and SPD (0.2 μM). After 24 hours, frequencies between apoptotic and viable cells were calculated by PI and Annexin staining. f-j) CD44 high cells were analyzed under the same conditions and by the same methods as described in a-e) above. […] All flow cytometry experiments were performed on FACS Canto II (BD Biosciences) and analyzed using FlowJo software (FLOWJO, LLC). […]

The subject of a further test is CD44 high CD8+ T cells. The test can be described thus: PI and Annexin apoptosis assay, CD44 high cells. Format: cell-based, mice. To be noted: in the presence of SPD 0.2 μM. Here is the method:
as §1

For test [2], the system named is CD44 low CD8+ T cells. In words: Mitochondria-related proteomics in vitro, CD44 low cells. The format is cell-based, mice. The note with it: late phase, 44 hours after SPD stimulation. Here is the method:
FIG. 6 CD8^+ T cells were isolated from the spleen of mice without tumor inoculation, and further isolated into CD44^+ (CD44 high) and CD44^− (CD44 low) cell populations. CD44 low cells and CD44 high cells were simulated with CD3/CD28 antibody beads and SPD (0.2 μM). After 1 hour and 44 hours, cells were collected and proteomics analyses regarding mitochondria-related proteins were conducted. A heat map showing the categories of respective signaling pathways, associated protein names and comparison of their expression levels is given.
T cells were prepared by two methods. For in vivo analysis, 13 days after tumor inoculation and 3 days after the start of therapy, draining lymph nodes from 5 mice were pooled, followed by isolation of CD8^+ T cells. From the isolated CD8^+ T cells, three samples each consisting of 1×10^6 cells were prepared and used for analysis. For in vitro experiments, 2×10^5 CD8^+ T cells stimulated with 0.2 μM spermidine for 1 hour were used. For mass spectrometry analysis, a Tandem Mass Tag (TMT) system or a Data Independent Acquisition (DIA) system was used. In the analysis of in vivo CD8^+ T cells (FIG. 3), those proteins which increased by 1.5-fold or more or decreased by 0.6-fold or less were extracted.

The subject of test [3] is CD8+ T cells. The test can be described thus: Tumor-infiltrating CD8+ T cells in aged MC38 mice. To be noted: 56-week old mice; combination with SPD; 13 days after tumor inoculation. Format: in vivo. Here is the method: (§2) FIG. 7 MC38 cells (5×10^5) were intradermally inoculated into 56-week old mice, which were treated along with the treatment schedule described in FIG. 1. PD-L1 antibody (2 mg/kg) and SPD (2 mg/kg) were used. a) Tumor growth curve and survival curve are shown. b) The frequency of CD8^+ T cells among lymphocytes infiltrating into tumor (in CD45^+ gate) and the absolute number of CD8^+ T cells per mg tumor 13 days after tumor inoculation are shown. c) CD8^+ T cells were isolated from spleen cells on the same schedule as b) and cultured for 20 hours under the stimulation with CD3/CD28. Cell proliferation was examined by means of ^3H uptake. d) CD8^+ T cells were isolated from draining lymph nodes on the same schedule as b) and glycolytic pathway-derived or mitochondrial metabolism-derived ATP production was calculated by Seahorse. e) Spare respiratory capacity (SRC) was also calculated in the experiment (d).
(§3) It is known from mouse model experiments that the effect of PD-1 inhibitory antibody therapy decreases in aged mice due to their decreased immunity. […] CD8^+ T cells were isolated from draining lymph nodes 13 days after tumor inoculation and glycolytic pathway-derived or mitochondrial metabolism-derived ATP production was calculated by Seahorse. Spare respiratory capacity (SRC) was also calculated. […]

Test [4] concerns CD8+ T cells. In words: Proliferation (3H uptake) of spleen CD8+ T cells of treated aged mice. Format: in vivo. To be noted: 56-week old mice; SPD combination group; 20 hours CD3/CD28, 3H uptake. Here is the method:
as §2, §3

Test [5] relates to CD8+ T cells. The test can be described thus: Seahorse ATP production and SRC of draining lymph node CD8+ T cells of treated aged mice. The format is in vivo. The note with it: 56-week old mice, SPD combination treatment group. Here is the method: as §2
Oxygen consumption rates were measured using an XF96 Extracellular Flux Analyzer (Seahorse Bioscience). CD8^+ T cells (4×10^5) per well were seeded in a determined XF96 plate. […] In brief, basal OCR measurement was performed […] sequential addition of oligomycin, FCCP, and rotenone/antimycin A. SRC and ATP production rates were calculated by the following formulas: […]

“Also recorded” adds a separate entry of the source.

Regarding `NCCCCNCCCN` [SPD, spermidine], in the test on CD44 low CD8+ T cells [1], the apoptotic cells entry was “decreased” and the viable cells entry was “increased; also recorded: significantly high”. In the test with CD44 high CD8+ T cells, the apoptotic cells result is recorded as “decreased” and the viable cells entry was “increased; also recorded: significantly high”. For the same compound, the “expression levels of mitochondrial proteins and proteins of mitochondria-related metabolism” value with CD44 low CD8+ T cells [2] was “high”. Also, the “number of CD8+ T cells in lymphocytes infiltrating into tumor” value in the test on CD8+ T cells [3] is on record as “increase”. The “proliferative activation of spleen CD8+ T cells” value with CD8+ T cells [4] is reported as “enhanced”. For the same compound, in the test with CD8+ T cells [5], the “SRCs of CD8+ T cells” value is recorded as “increased” and the “production of ATP, mitochondrial metabolism-dependent” value is “increased”.

Values taken from US20220401385A1, “Combination Therapy Based on PD-1 Signaling Inhibitors” (Kyoto University, priority 2019, published 2022).
